Where no end group is shown, it is not given here.
What was measured:
[1] = system: thrombin; details: cited from earlier work; for inhibition of thrombin activity: at a concentration of 0.4 mg mL^−1, purified from Alcalase 2.4L hydrolysate of peanut protein
From the text: In addition, three peptides SWAQL, GNHEAGE and CFNEYE were purified from the A ...

[2] = target: T1, thrombin (Bos taurus, UniProt P00735); assay: in vitro antithrombotic activity (thrombin-induced fibrinogen clotting, absorbance at 405 nm); format: biochemical, Bovine
T1 construct: thrombin consists of a 36-residue light chain and a 259-residue heavy chain; purchased Sigma-Aldrich Co. (St. Louis, MO, USA)
Procedure: Antithrombotic activity was determined according to the method of Yang et al.[53] The samples of thrombin and fibrinogen were dissolved in 0.05 M pH 7.4 Tris–HCl buffer, respectively. The determination was carried out using the IMark plate reader (Uji-shi, Kyoto, Japan) at 405 nm. 140 μL of 1 mg mL^−1 fibrinogen and 40 μL of the sample were added to the microplate, then mixed and the absorbance was recorded as Sb. After, 10 μL of thrombin (12 IU mL^−1) was added to the mixture which was maintained at 37 °C for 10 min, and the absorbance was recorded as S. 40 μL of buffer instead of the sample was used for control group, and the absorbances were Cb and C, respectively. The antithrombotic activity was calculated from eqn (5) as follows:5 [drawing 4]

[3] = target: T1, thrombin; assay: fluorescence quenching of thrombin by P10 (Stern-Volmer, binding constant, thermodynamics); design: species or system Bovine; details: 310 K, log (F0 − F)/F against log [Q]
From the text: The Stern–Volmer plot at 290 K and 310 K was plotted to determine the quenching mechanism (static quenching or dynamic quenching), as shown in Fig. 2B. F0 and F represented the fluorescence intensity of thrombin in the absence and presence of P10, respectively. And [Q] represented the concentration of the quencher. In general, the stability and quenching constants of the compounds formed under the static quenching mechanism decrease with increasing temperature. The interaction under dynamic quenching increases the number of effective collisions and enhances energy transfer, thus increasing the quenching constant of the fluorescent material as the temperature increases.[26,30]
To confirm this conclusion, the fluorescence quenching data was further analyzed by the Stern–Volmer eqn (1).[31] Where Ksv represented the quenching constant of the Stern–Volmer.1 [drawing 1]
The binding constant (Kb) and the number of binding sites (n) can be obtained from eqn (2) when small molecules are independently bound to a set of equivalent sites on the macromolecule:[33]2 [drawing 2] […]
The fluorescence spectra were recorded on the Hitachi F-4500 fluorescence spectrophotometer (Hitachi, Japan). […] The fluorescence emission spectrum of the mixture from 290 nm to 420 nm was scanned, and the excitation wavelength was set to 280 nm. […]

CFNEYE [peptide purified from the Alcalase 2.4L hydrolysate of peanut protein]
inhibition of thrombin activity [1]: complete inhibition

GNHEAGE [peptide purified from the Alcalase 2.4L hydrolysate of peanut protein]
inhibition of thrombin activity [1]: complete inhibition

SWAQL [peptide purified from the Alcalase 2.4L hydrolysate of peanut protein]
inhibition of thrombin activity [1]: complete inhibition

KNAENELGEVTVR
antithrombotic activity ([1]; at a concentration of 1 mg mL^−1): 67.21%

VEPVTVNPHE [anticoagulant peptide purified from Buthus martensii Karsch]
IC50, inhibition of thrombin activity ([1]; peptide purified from Buthus martensii Karsch): 12 µg/mL

AGFAGDDAPR [P10, AGFAGDDAPR]
IC50 [2]: 164 µM
Binding constant Kb [3]: 174 M⁻¹

Source: PMC9064813, “Interaction of the synthetic antithrombotic peptide P10 with thrombin: a spectroscopy study” (RSC Advances, 2019)
